Test results taken from patent US20010007862A1, “METHOD OF SELECTING A SALT FOR MAKING AN INCLUSION COMPLEX” (priority 1996, published 2001).
Counter-ions that a name gives are not always drawn.

Experiment: Equilibrium solubility of ziprasidone salts in 40% (w/v) aqueous SBECD
Conditions: 40% SBECD
Description: Many different experimental protocols can be envisioned and implemented.

## O=C1Cc2cc(CCN3CCN(c4nsc5ccccc45)CC3)c(Cl)cc2N1 [mesylate, Ziprasidone Mesylate]
  Rank of solubility among salt candidates and cyclodextrin solutions tested: highest solubility
